Laboratory results as given in ChEMBL document CHEMBL5729018, “MAPK inhibitors” (2022).

How the values were obtained:
[1] = molecular target: T1, Mitogen-activated protein kinase 14 (Homo sapiens, UniProt Q16539); assay: (§1) Fluorescence polarisation (FP) assay for active p38alpha MARK: FP signals were measured with a PHERAstar microplate reader (BMG Labtech) using black, low-binding half-area 96 well plates (Corning). Each binding data point was carried out in duplicate or triplicate. Data were recorded in millipolarisation (mP) units and measured at an excitation wavelength of 485 nm and an emission wavelength of 520 nm. Tris(hydroxymethyl)aminomethane (Tris) assay buffer was used in all binding experiments and consisted of 10 mM Tris, […], and 3.5 mM 3-((3-cholamidopropyl)dimethylammonium)-1-propanesulfonate (Chaps) at pH 8.0. The recombinant active His-tag p38α MAPK used in the ligand binding assays were prepared as described by Bukhtiyarova et al.
T1 sequence (Q16539 whole entry): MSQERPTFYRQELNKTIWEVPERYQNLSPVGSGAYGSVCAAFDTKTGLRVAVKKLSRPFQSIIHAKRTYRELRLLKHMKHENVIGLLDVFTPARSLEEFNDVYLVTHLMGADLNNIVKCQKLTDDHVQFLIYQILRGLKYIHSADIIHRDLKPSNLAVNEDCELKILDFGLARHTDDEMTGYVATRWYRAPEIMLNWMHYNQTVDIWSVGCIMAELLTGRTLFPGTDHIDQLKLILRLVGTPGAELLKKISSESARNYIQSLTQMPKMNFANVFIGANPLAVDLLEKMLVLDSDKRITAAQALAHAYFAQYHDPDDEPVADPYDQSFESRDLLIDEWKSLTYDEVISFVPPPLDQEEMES

[2] = molecular target: T1, Mitogen-activated protein kinase 14; assay: as §1, with “assay:” for “assay for active p38alpha MARK:”, “8.0.” for “8.0. The recombinant active His-tag p38α MAPK used in the ligand binding assays were prepared as described by Bukhtiyarova et al.”
[3] = molecular target: T1, Mitogen-activated protein kinase 14; assay: Each binding data point was carried out in duplicate or triplicate. Data were recorded in millipolarisation (mP) units and measured at an excitation wavelength of 485 nm and an emission wavelength of 520 nm. Tris(hydroxymethyl)aminomethane (Tris) assay buffer was used in all binding experiments and consisted of 10 mM Tris, 50 nM potassium chloride, and 3.5 mM 3-((3-cholamidopropyl)dimethylammonium)-1-propanesulfonate (Chaps) at pH 8.0.

Ki [1]	IC50 [2]	Ki [3]	Structure (SMILES)
560 nM	160 nM	2000 nM	OCCC#Cc1cc(-c2ccncc2)c(-c2ccc(F)cc2)s1
630 nM	–	2100 nM	OCC#Cc1cc(-c2ccncc2)c(-c2ccc(F)cc2)s1
–	30 nM	–	OCCC#Cc1nc(-c2ccc(F)cc2)c(-c2ccncc2)n1CCCc1ccccc1 [RWJ-67657]
